According to patent publication US11746098B2, “Proteasome activity enhancing compounds” (Proteostasis Therapeutics, Inc., priority 2018, dated 2023):

These compounds were tested against USP14 (Homo sapiens, UniProt P54578) (assay: USP14 Inhibition Assay). Details: average value from a minimum of two experimental determinations, read-out: IC50 Category.
Type: biochemical
From the text: The activity of the compound described herein to inhibit USP14 can be measured using previously described methodology [B. H. Lee et al. Nature 2010, 467 (9), 179, the contents of which are expressly incorporated by reference herein].
Example 6: USP14 Inhibition Assay

Cc1c(C(=O)CN2CCCCC2)cn(C)c1-c1ccc(Cl)cc1 [Compound 93, 1-(5-(4-Chlorophenyl)-1,4-dimethyl-1H-pyrrol-3-yl)-2-(piperidin-1-yl)ethanone] and Cc1c(C(=O)CN2CCC(O)CC2)cn(C)c1-c1ccc(Cl)cc1 [Compound 94, 1-(5-(4-Chlorophenyl)-1,4-dimethyl-1H-pyrrol-3-yl)-2-(4-hydroxypiperidin-1-yl)ethanone] cannot be ordered by IC50: < 0.5 µM for the first, < 0.5 µM for the second.

Cc1cc(C(=O)CN2CCC(O)CC2)n(C)c1-c1ccc(Cl)cc1 [Compound 95, 1-(5-(4-Chlorophenyl)-1,4-dimethyl-1H-pyrrol-2-yl)-2-(4-hydroxypiperidin-1-yl)ethanone] and Cc1cc(C(=O)CN2CCCCC2)n(C)c1-c1ccc(Cl)cc1 [Compound 96, 1-(5-(4-Chlorophenyl)-1,4-dimethyl-1H-pyrrol-2-yl)-2-(piperidin-1-yl)ethanone] cannot be ordered by IC50: < 0.5 µM for the first, < 0.5 µM for the second.

Going from Cc1cc(C(=O)CN2CCCCC2)c(C)n1C1CCC(Cl)(Cl)CC1 [Compound 97, 1-(1-(4,4-Dichlorocyclohexyl)-2,5-dimethyl-1H-pyrrol-3-yl)-2-(piperidin-1-yl)ethanone] to Cc1cc(C(=O)CN2CCCCC2)c(C)n1[C@H]1CC[C@@H](C#N)CC1 [Compound 105, cis-(2,5-Dimethyl-3-(2-(piperidin-1-yl)acetyl)-1H-pyrrol-1-yl)cyclohexanecarbonitrile], the IC50 rises from < 0.5 µM to > 5 µM.

First: Cc1cc(C(=O)C[n+]2ccccc2)c(C)n1-c1ccc(Cl)cc1 [Compound 99, 1-(2-(1-(4-Chlorophenyl)-2,5-dimethyl-1H-pyrrol-3-yl)-2-oxoethyl)pyridin-1-ium Chloride]
Second: Cc1cc(C(=O)CNCCO)c(C)n1-c1ccc(Cl)cc1 [Compound 101, 1-(1-(4-Chlorophenyl)-2,5-dimethyl-1H-pyrrol-3-yl)-2-((2-hydroxyethyl)amino)ethan-one]
The IC50 of the first is lower: < 0.5 µM for the first, > 5 µM for the second.

Compared with Cc1cc(C=O)c(C)n1-c1ccc(Cl)cc1 [Compound 100, 1-(4-Chlorophenyl)-2,5-dimethyl-1H-pyrrole-3-carbaldehyde], Cc1cc(C(=O)CNCC(O)CO)c(C)n1-c1ccc(C#N)cc1 (stereo not shown) [Compound 134, 4-(3-(2-((2,3-Dihydroxypropyl)amino)acetyl)-2,5-dimethyl-1H-pyrrol-1-yl)benzonitrile] is lower in IC50: > 5 µM for the first, 0.5 to 5 µM for the second. The second is the more potent here.

First: Cc1cc(C(=O)CNCC2COC(C)(C)O2)c(C)n1-c1ccc(C#N)cc1 (stereo not shown) [Compound 102, 4-(3-(2-(((2,2-Dimethyl-1,3-dioxolan-4-yl)methyl)amino)acetyl)-2,5-dimethyl-1H-pyrrol-1-yl)benzonitrile]
Second: Cc1cc(C(=O)CN2CCC(CN)CC2)c(C)n1-c1ccc(C#N)cc1 [Compound 157, 4-(3-(2-(4-(Aminomethyl)piperidin-1-yl)acetyl)-2,5-dimethyl-1H-pyrrol-1-yl)benzonitrile]
The IC50 of the first is higher: > 5 µM for the first, < 0.5 µM for the second.

Cc1cc(C(=O)CN2CCCCC2)c(C)n1[C@H]1CC[C@@H](C(N)=O)CC1 [Compound 103, cis-4-(2,5-Dimethyl-3-(2-(piperidin-1-yl)acetyl)-1H-pyrrol-1-yl)cyclohexanecarboxamide] and Cc1cc(C(=O)CN2CCCCC2)c(C)n1[C@H]1CC[C@H](C(N)=O)CC1 [Compound 122, trans-4-(2,5-Dimethyl-3-(2-(piperidin-1-yl)acetyl)-1H-pyrrol-1-yl)cyclohexane-1-carboxamide] cannot be ordered by IC50: > 5 µM for the first, > 5 µM for the second.

Cc1cc(C(=O)CN2CCCCC2)c(C)n1CC(F)(F)F [Compound 107, 1-(2,5-Dimethyl-1-(2,2,2-trifluoroethyl)-1H-pyrrol-3-yl)-2-(piperidin-1-yl)ethanone] and Cc1cc(C(=O)CN2CCCCC2)c(C)n1-c1ccc(C(=O)O)cc1 [Compound 114, 4-(2,5-Dimethyl-3-(2-(piperidin-1-yl)acetyl)-1H-pyrrol-1-yl)benzoic acid] cannot be ordered by IC50: > 5 µM for the first, > 5 µM for the second.

Cc1cc(C(=O)CN2CCCCC2)c(C)n1-c1ccc(C(=O)OCc2ccccc2)cc1 [Compound 110, trans-Benzyl 4-(2,5-dimethyl-3-(2-(piperidin-1-yl)acetyl)-1H-pyrrol-1-yl)benzoate] and Cc1cc(C(=O)CN2CCC(O)CC2)c(C)n1-c1ccc(C(=O)OCc2ccccc2)cc1 [Compound 111, trans-Benzyl 4-(3-(2-(4-hydroxypiperidin-1-yl)acetyl)-2,5-dimethyl-1H-pyrrol-1-yl)benzoate] cannot be ordered by IC50: > 5 µM for the first, > 5 µM for the second.

CCc1ccc(C(=O)CN2CCCCC2)n1-c1ccc(C#N)cc1 [Compound 112, 4-(2-Ethyl-5-(2-(piperidin-1-yl)acetyl)-1H-pyrrol-1-yl)benzonitrile] and CC(=O)c1c(CN2CCCCC2)c(C)n(-c2ccc(C#N)cc2)c1C [Compound 117, 4-(3-Acetyl-2,5-dimethyl-4-(piperidin-1-ylmethyl)-1H-pyrrol-1-yl)benzonitrile] cannot be ordered by IC50: > 5 µM for the first, > 5 µM for the second.

Compared with Cc1cc(C(=O)CN2CCC(O)CC2)c(C)n1-c1ccc(C(=O)O)cc1 [Compound 113, 4-(3-(2-(4-Hydroxypiperidin-1-yl)acetyl)-2,5-dimethyl-1H-pyrrol-1-yl)benzoic acid], CC#Cc1ccc(-n2c(C)cc(C(=O)CN3CCC(O)CC3)c2C)cc1 [Compound 140, 1-(2,5-Dimethyl-1-(4-(prop-1-yn-1-yl)phenyl)-1H-pyrrol-3-yl)-2-(4-hydroxypiperidin-1-yl)ethanone] is lower in IC50: > 5 µM for the first, 0.5 to 5 µM for the second. The second is the more potent here.

First: Cc1cc(C(=O)CN2CCCCC2)c(C)n1[C@H]1CC[C@H](C(=O)O)CC1 [Compound 121, trans-4-(2,5-Dimethyl-3-(2-(piperidin-1-yl)acetyl)-1H-pyrrol-1-yl)cyclohexane-1-carboxylic acid]
Second: Cc1cc(C(=O)CN2CCCCC2)c(C)n1[C@H]1CC[C@H](C#N)CC1 [Compound 143, trans-4-(2,5-Dimethyl-3-(2-(piperidin-1-yl)acetyl)-1H-pyrrol-1-yl)cyclohexane-1-carbonitrile]
The IC50 of the first is higher: > 5 µM for the first, 0.5 to 5 µM for the second. The second is the more potent here.

First: Cc1cc(C(=O)CN2CCC(CNC(=O)OC(C)(C)C)CC2)c(C)n1-c1ccc(C#N)cc1 [Compound 135, tert-butyl ((1-(2-(1-(4-Cyanophenyl)-2,5-dimethyl-1H-pyrrol-3-yl)-2-oxoethyl)piperidin-4-yl)methyl)carbamate]
Second: Cc1cc(C(=O)CN2CCCC(CNC(=O)OC(C)(C)C)C2)c(C)n1-c1ccc(C#N)cc1 (stereo not shown) [Compound 158, tert-butyl ((1-(2-(1-(4-cyanophenyl)-2,5-dimethyl-1H-pyrrol-3-yl)-2-oxoethyl)piperidin-3-yl)methyl)carbamate]
The IC50 of the first is higher: 0.5 to 5 µM for the first, < 0.5 µM for the second.

First: CC#Cc1ccc(-n2c(C)cc(C(=O)CN3CCCCC3)c2C)cc1 [Compound 136, 1-(2,5-Dimethyl-1-(4-(prop-1-yn-1-yl)phenyl)-1H-pyrrol-3-yl)-2-(piperidin-1-yl)ethanone]
Second: Cc1cc(C(=O)CN2CCCC(CN)C2)c(C)n1-c1ccc(C#N)cc1 (stereo not shown) [Compound 159, 4-(3-(2-(3-(Aminomethyl)piperidin-1-yl)acetyl)-2,5-dimethyl-1H-pyrrol-1-yl)benzonitrile]
The IC50 of the first is higher: 0.5 to 5 µM for the first, < 0.5 µM for the second. The second is the more potent here.

Cc1c(C(=O)CN2CCCCC2)c(C)n(-c2ccc(Cl)cc2)c1C [Compound 137, 1-(1-(4-Chlorophenyl)-2,4,5-trimethyl-1H-pyrrol-3-yl)-2-(piperidin-1-yl)ethanone] and Cc1c(C(=O)CN2CCC(O)CC2)c(C)n(-c2ccc(Cl)cc2)c1C [Compound 139, 1-(1-(4-Chlorophenyl)-2,4,5-trimethyl-1H-pyrrol-3-yl)-2-(4-hydroxypiperidin-1-yl)ethanone] fall in the same range of IC50: 0.5 to 5 µM for the first, 0.5 to 5 µM for the second.

Cc1cc(C(=O)CN(C)CCCCC(N)C(=O)O)c(C)n1-c1ccc(C#N)cc1 (stereo not shown) [Compound 138, 2-Amino-6-((2-(1-(4-cyanophenyl)-2,5-dimethyl-1H-pyrrol-3-yl)-2-oxoethyl)(methyl)amino)hexa-noic acid] gave an IC50 of 0.5 to 5 µM.
